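Method: 48-hour compound exposure of cells in 96-well plates, five concentrations, linear interpolation of endpoints. GI50 is the concentration that inhibits growth by half. TGI is the concentration that stops growth completely.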

Among the test systems are BT-549 breast; HL-60(TB) leukemia; MDA-MB-435; PC-3 prostate; RPMI-8226 leukemia; SK-MEL-28 melanoma; SN12C renal; SW-620 colon; UO-31 renal; SNB-75 CNS.
Holding throughout (experiment): NCI tumour cell line growth inhibition, 48 h

On to `CCOC(=O)C1(Cc2ccccc2)Cc2cc3c(cc2C1)CCC3`, for which the TGI in the assay with BT-549 breast is 95.3 µM; with HL-60(TB) leukemia, 76.9 µM; with MDA-MB-435, over 100 µM; with PC-3 prostate, over 100 µM; in the assay on RPMI-8226 leukemia it was 51.7 µM; in the assay on SK-MEL-28 melanoma, over 100 µM. Further, the TGI in the assay on SN12C renal, in the assay on SW-620 colon and with UO-31 renal was over 100 µM in each case.
On to `O=C1/C(=C\c2ccc([N+](=O)[O-])cc2)Sc2scc(-c3ccc(O)c(O)c3)[n+]21`, for which the TGI with HL-60(TB) leukemia was 8.93 µM; in the assay on MDA-MB-435, 21.9 µM; in the assay on PC-3 prostate, 19.4 µM; in the assay with RPMI-8226 leukemia it was 15.2 µM; with SK-MEL-28 melanoma, 25 µM; with SN12C renal, 50 µM. For the same molecule, the TGI in the assay with SNB-75 CNS was 25.9 µM; in the assay with SW-620 colon, 15 µM; with UO-31 renal, 22.3 µM.
Regarding `CC(=O)O[C@H]1C(=O)[C@@]2(C)C([C@H](OC(=O)c3ccccc3)[C@]3(O)C[C@H](OC(=O)[C@H](O)[C@H](NC(=O)c4ccccc4)c4ccc(Cl)cc4)C(C)=C1C3(C)C)C1(OC(C)=O)CO[C@@H]1C[C@@H]2O` (stereo not given in full), the TGI turned out to be 4.67 µM in the assay on RPMI-8226 leukemia, 18.3 µM in the assay on SW-620 colon and 11 µM with UO-31 renal. Also, the GI50 in the assay on UO-31 renal was 1.97 µM.
On to `O=C1C=C(N2CCCC2)C=C(N2CCCC2)C1`, for which the TGI with HL-60(TB) leukemia, in the assay on RPMI-8226 leukemia, in the assay on SK-MEL-28 melanoma, in the assay with SNB-75 CNS, with SW-620 colon and in the assay with UO-31 renal was over 100 µM each time.
Regarding `O=S(=O)(c1cc(Cl)ccc1Cl)N1CCN(c2ccc(Cl)c(Cl)c2)CC1`, the TGI in the assay with BT-549 breast, in the assay on HL-60(TB) leukemia, in the assay on PC-3 prostate, in the assay with RPMI-8226 leukemia, in the assay on SK-MEL-28 melanoma and in the assay on SN12C renal was over 100 µM each time. Further, the TGI in the assay on SNB-75 CNS is 33.1 µM; in the assay with SW-620 colon, over 100 µM; in the assay with UO-31 renal, over 100 µM.
Regarding `O=C(Cc1ccccc1)NN1C(=O)C(Cl)C1c1cccc(O)c1` (stereo not given), the TGI was found to be 32.8 µM in the assay with HL-60(TB) leukemia; 10.1 µM with RPMI-8226 leukemia; 34.6 µM in the assay with SK-MEL-28 melanoma; 33.4 µM in the assay on SN12C renal; 74.6 µM in the assay on SNB-75 CNS; 16.7 µM in the assay on SW-620 colon. The same molecule displayed a TGI with UO-31 renal of 29.4 µM.
`CCN(CC)CCNC(=O)c1ccc([N+](=O)[O-])cc1OC`: the TGI in the assay with HL-60(TB) leukemia, in the assay with SK-MEL-28 melanoma, in the assay with SN12C renal, with SNB-75 CNS, in the assay with SW-620 colon and in the assay with UO-31 renal was over 100 µM in each case.
As to `COc1cc([C@@H]2c3cc4c(cc3[C@H](OC3OC5COC(C(C)C)OC5C(O)C3O)C3COC(=O)[C@@H]32)OCO4)cc(OC)c1O` (stereo not given in full), the TGI was 15.9 µM in the assay on BT-549 breast; over 100 µM in the assay with HL-60(TB) leukemia; 19.2 µM in the assay on MDA-MB-435; 14.4 µM in the assay with PC-3 prostate; 42.5 µM in the assay on RPMI-8226 leukemia; 22.5 µM with SW-620 colon. Also, in the assay with UO-31 renal, the TGI is 22.3 µM.
For the molecule `CC(O)c1c2c(cc3c1CC1(C3)Cc3cc4c(c(C(C)O)c3C1)CCC4)CCC2` (stereo not given), the TGI with HL-60(TB) leukemia was found to be 21.2 µM; in the assay on MDA-MB-435 it was 31.9 µM; with PC-3 prostate it was 34.9 µM; in the assay with RPMI-8226 leukemia it was 38.5 µM; with SN12C renal it was 32 µM; in the assay on UO-31 renal, 3.26 µM.
Take `Cc1c(NC(=O)C(=O)N=NC(=O)c2ccncc2)c(O)c2ccccc2c1O`: the TGI with HL-60(TB) leukemia is over 67.5 µM; in the assay with RPMI-8226 leukemia, over 82 µM; in the assay with SK-MEL-28 melanoma it was 31.7 µM; with SN12C renal it was 24.3 µM; in the assay on SNB-75 CNS, 36.2 µM; in the assay with SW-620 colon, 33 µM. Moreover, the TGI in the assay on UO-31 renal was determined as 40.5 µM.
Regarding `O=C1NCC2(CCNCC2)N1c1ccccc1`, the TGI in the assay on HL-60(TB) leukemia, with MDA-MB-435, with PC-3 prostate, with RPMI-8226 leukemia, in the assay with SK-MEL-28 melanoma and with SN12C renal was over 100 µM throughout. Moreover, the TGI with SNB-75 CNS and with SW-620 colon was over 100 µM throughout.
`Cc1ccc(S(=O)(=O)N2CCCSCCSCCCSCC2)cc1`: the TGI in the assay with BT-549 breast, with HL-60(TB) leukemia, with MDA-MB-435, with PC-3 prostate, in the assay with SK-MEL-28 melanoma and in the assay with SN12C renal was over 100 µM in each case. Moreover, the TGI with SNB-75 CNS, in the assay with SW-620 colon and in the assay on UO-31 renal was over 100 µM throughout.
For the molecule `CCOc1cc(/C=N\N(C)C)cc(/C=N\N(C)C)c1O`, the TGI in the assay with HL-60(TB) leukemia, in the assay with MDA-MB-435, in the assay with PC-3 prostate, in the assay with RPMI-8226 leukemia, in the assay on SK-MEL-28 melanoma and in the assay on SN12C renal was over 100 µM throughout. Also, the values for the TGI with SNB-75 CNS, in the assay on SW-620 colon and in the assay on UO-31 renal were 77.7 µM, over 100 µM and over 100 µM, respectively.
In the case of `COCCOCN(C(=O)C1=CCC2(CC1)OCCO2)c1ccccc1I`, the TGI in the assay on MDA-MB-435, in the assay on PC-3 prostate, with RPMI-8226 leukemia, in the assay on SK-MEL-28 melanoma, in the assay with SN12C renal and in the assay on SNB-75 CNS was over 50 µM each time. The TGI with SW-620 colon and in the assay on UO-31 renal was over 50 µM in each case.
For the molecule `FC(F)(F)P1C2C=CC(CC2)C1(F)F` (stereo not given), the TGI in the assay on HL-60(TB) leukemia, with RPMI-8226 leukemia, in the assay on SK-MEL-28 melanoma, with SN12C renal, in the assay with SNB-75 CNS and in the assay on SW-620 colon was over 100 µM throughout. The same molecule had a TGI in the assay on UO-31 renal of over 100 µM.
For the molecule `Cc1cc(S(N)(=O)=O)c(SCc2nc(N)nc(N(C)C)n2)cc1Cl`, the TGI in the assay on BT-549 breast, in the assay with HL-60(TB) leukemia, in the assay on PC-3 prostate, in the assay on RPMI-8226 leukemia, with SK-MEL-28 melanoma and in the assay with SN12C renal was over 10 µM throughout. The TGI in the assay on SNB-75 CNS, with SW-620 colon and in the assay with UO-31 renal was over 10 µM throughout.

The values are drawn from PubChem BioAssay (NCI).
